Counter-ions that a name gives are not always drawn.
Each compound was assayed on HMOX1 (assay: HMOX1 Protein Assay (immunostaining of HO-1 in NHLF cells, GE InCell 1000)). Conditions: Homo sapiens, fold change above DMSO treated cells, 3 μM compound (asterisk), 16 h.
Type: cell-based
Summary of the method: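 NHLF cells seeded overnight in FGM-2, then exposed to compound or DMSO vehicle for 16 h, fixed, and immunostained for HO-1 with Hoechst nuclear counterstain; imaged on InCell 1000. Values are fold change over DMSO-treated cells, generally at 5 μM (0.8% DMSO), with asterisked entries at 3 μM.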

Row | Structure (SMILES) | fold induction at 3 µM
1 | Cn1c(Nc2nc3ccc(Cl)cc3s2)nc2cc(C(=O)NN3CCOCC3)ccc21 [Example 321, 2-(6-Chloro-benzothiazol-2-ylamino)-1-methyl-1H-benzoimidazole-5-carboxylic acid morpholin-4-ylamide] | 15.3
2 | Cn1c(Nc2nc3ccc(Cl)cc3s2)nc2cc(C(=O)NCCN3CCCCC3)ccc21 [Example 334, 2-(6-Chloro-benzothiazol-2-ylamino)-1-methyl-1H-benzoimidazole-5-carboxylic acid (2-piperidin-1-yl-ethyl)-amide] | 13.4
3 | CN1CCN(CCNC(=O)c2ccc3c(c2)nc(Nc2nc4ccc(OC(F)(F)F)cc4s2)n3C)CC1 [Example 337, 1-Methyl-2-(6-trifluoromethoxy-benzothiazol-2-ylamino)-1H-benzoimidazole-5-carboxylic acid [2-(4-methyl-piperazin-1-yl)-ethyl]-amide] | 12.7
4 | CN1CCN(CCNC(=O)c2ccc3c(c2)nc(Nc2nc4ccc(Cl)cc4s2)n3C)CC1 [Example 338, 2-(6-Chloro-benzothiazol-2-ylamino)-1-methyl-1H-benzoimidazole-5-carboxylic acid [2-(4-methyl-piperazin-1-yl)-ethyl]-amide] | 13.6
5 | Cn1c(Nc2nc3ccc(Cl)cc3s2)nc2cc(C(=O)NCCN3CCNCC3)ccc21 [Example 339, 2-(6-Chloro-benzothiazol-2-ylamino)-1-methyl-1H-benzoimidazole-5-carboxylic acid (2-piperazin-1-yl-ethyl)-amide hydrochloride] | 10.6
6 | Cn1c(Nc2nc3ccc(Cl)cc3s2)nc2cc(C(=O)NCCN3CCOCC3)ccc21 [Example 340, 2-(6-Chloro-benzothiazol-2-ylamino)-1-methyl-1H-benzoimidazole-5-carboxylic acid (2-morpholin-4-yl-ethyl)-amide] | 14.4
7 | Cn1c(Nc2nc3ccc(C(F)(F)F)cc3s2)nc2cc(C(=O)NCCN3CCOCC3)ccc21 [Example 341, 1-Methyl-2-(6-trifluoromethyl-benzothiazol-2-ylamino)-1H-benzoimidazole-5-carboxylic acid (2-morpholin-4-yl-ethyl)-amide] | 32.8
8 | Cn1c(Nc2nc3ccc(OC(F)(F)F)cc3s2)nc2cc(C(=O)NCCN3CCS(=O)(=O)CC3)ccc21 [Example 342, 1-Methyl-2-(6-trifluoromethoxy-benzothiazol-2-ylamino)-1H-benzoimidazole-5-carboxylic acid [2-(1,1-dioxo-thiomorpholin-4-yl)-ethyl]-amide] | 36.8
9 | Cn1c(Nc2nc3ccc(OC(F)(F)F)cc3s2)nc2cc(C(=O)NCCCN)ccc21 [Example 344, 1-Methyl-2-(6-trifluoromethoxy-benzothiazol-2-ylamino)-1H-benzoimidazole-5-carboxylic acid (3-amino-propyl)-amide hydrochloride] | 25.7

Same assay, conditions: Homo sapiens, fold change above DMSO treated cells, 5 μM compound, 16 h

Row | Structure (SMILES) | fold induction at 5 µM
10 | COCCn1c(Nc2nc3ccc(Cl)cc3s2)nc2cc(C(=O)NCC3CCN(C(=O)CN(C)C)CC3)ccc21 [Example 315, 2-(6-Chloro-benzothiazol-2-ylamino)-1-(2-methoxy-ethyl)-1H-benzoimidazole-5-carboxylic acid [1-(2-dimethylamino-acetyl)-piperidin-4-ylmethyl]-amide] | 75.7
11 | CN1CC[C@@H](NC(=O)c2ccc3c(c2)nc(Nc2nc4ccc(Cl)cc4s2)n3C)C1 [Example 316, 2-(6-Chloro-benzothiazol-2-ylamino)-1-methyl-1H-benzoimidazole-5-carboxylic acid ((R)-1-methyl-pyrrolidin-3-yl)-amide] | 18.1
12 | CN1CC[C@H](NC(=O)c2ccc3c(c2)nc(Nc2nc4ccc(Cl)cc4s2)n3C)C1 [Example 317, 2-(6-Chloro-benzothiazol-2-ylamino)-1-methyl-1H-benzoimidazole-5-carboxylic acid ((S)-1-methyl-pyrrolidin-3-yl)amide] | 16.3
13 | CN1CCCCC1CNC(=O)c1ccc2c(c1)nc(Nc1nc3ccc(Cl)cc3s1)n2C (stereo not drawn) [Example 318, 2-(6-Chloro-benzothiazol-2-ylamino)-1-methyl-1H-benzoimidazole-5-carboxylic acid (1-methyl-piperidin-2-ylmethyl)-amide] | 11.9
14 | CN1CCC(NC(=O)c2ccc3c(c2)nc(Nc2nc4ccc(Cl)cc4s2)n3C)CC1 [Example 319, 2-(6-Chloro-benzothiazol-2-ylamino)-1-methyl-1H-benzoimidazole-5-carboxylic acid (1-methyl-piperidin-4-yl)-amide] | 23.9
15 | Cn1c(Nc2nc3ccc(Cl)cc3s2)nc2cc(C(=O)NC3CCN(S(C)(=O)=O)CC3)ccc21 [Example 320, 2-(6-Chloro-benzothiazol-2-ylamino)-1-methyl-1H-benzoimidazole-5-carboxylic acid (1-methanesulfonyl-piperidin-4-yl)-amide] | 20
16 | Cn1c(Nc2nc3ccc(OC(F)(F)F)cc3s2)nc2cc(C(=O)NCCNS(C)(=O)=O)ccc21 [Example 322, 1-Methyl-2-(6-trifluoromethoxy-benzothiazol-2-ylamino)-1H-benzoimidazole-5-carboxylic acid (2-methanesulfonylamino-ethyl)-amide] | 36
17 | CN(C)CC(=O)NCCNC(=O)c1ccc2c(c1)nc(Nc1nc3ccc(OC(F)(F)F)cc3s1)n2C [Example 323, 1-Methyl-2-(6-trifluoromethoxy-benzothiazol-2-ylamino)-1H-benzoimidazole-5-carboxylic acid [2-(2-dimethylamino-acetylamino)-ethyl]-amide] | 113
18 | CN(C)CC(=O)NCCNC(=O)c1ccc2c(c1)nc(Nc1nc3ccc(Cl)cc3s1)n2C [Example 324, 2-(6-Chloro-benzothiazol-2-ylamino)-1-methyl-1H-benzoimidazole-5-carboxylic acid [2-(2-dimethylamino-acetylamino)-ethyl]-amide] | 27.9
19 | Cn1c(Nc2nc3ccc(OC(F)(F)F)cc3s2)nc2cc(C(=O)NCCNC(=O)CO)ccc21 [Example 325, 1-Methyl-2-(6-trifluoromethoxy-benzothiazol-2-ylamino)-1H-benzoimidazole-5-carboxylic acid [2-(2-hydroxy-acetylamino)-ethyl]-amide] | 32.4
20 | C[C@H](O)C(=O)NCCNC(=O)c1ccc2c(c1)nc(Nc1nc3ccc(OC(F)(F)F)cc3s1)n2C [Example 326, 1-Methyl-2-(6-trifluoromethoxy-benzothiazol-2-ylamino)-1H-benzoimidazole-5-carboxylic acid [2-((S)-2-hydroxy-propionylamino)-ethyl]-amide] | 34.3
21 | Cn1c(Nc2nc3ccc(OC(F)(F)F)cc3s2)nc2cc(C(=O)NCCn3ccnc3)ccc21 [Example 327, 1-Methyl-2-(6-trifluoromethoxy-benzothiazol-2-ylamino)-1H-benzoimidazole-5-carboxylic acid (2-imidazol-1-yl-ethyl)-amide] | 31.9
22 | Cn1c(Nc2nc3ccc(OC(F)(F)F)cc3s2)nc2cc(C(=O)NCCn3cccn3)ccc21 [Example 328, 1-Methyl-2-(6-trifluoromethoxy-benzothiazol-2-ylamino)-1H-benzoimidazole-5-carboxylic acid (2-pyrazol-1-yl-ethyl)-amide] | 29.4
23 | Cn1c(Nc2nc3ccc(OC(F)(F)F)cc3s2)nc2cc(C(=O)NCCN3CCCC3=O)ccc21 [Example 329, 1-Methyl-2-(6-trifluoromethoxy-benzothiazol-2-ylamino)-1H-benzoimidazole-5-carboxylic acid [2-(2-oxo-pyrrolidin-1-yl)-ethyl]-amide] | 52.2
24 | Cn1c(Nc2nc3ccc(OC(F)(F)F)cc3s2)nc2cc(C(=O)NCCN3CCNC3=O)ccc21 [Example 330, 1-Methyl-2-(6-trifluoromethoxy-benzothiazol-2-ylamino)-1H-benzoimidazole-5-carboxylic acid [2-(2-oxo-imidazolidin-1-yl)-ethyl]-amide] | 37.7
25 | Cn1c(Nc2nc3ccc(Cl)cc3s2)nc2cc(C(=O)NCCN3CCNC(=O)C3)ccc21 [Example 331, 2-(6-Chloro-benzothiazol-2-ylamino)-1-methyl-1H-benzoimidazole-5-carboxylic acid [2-(3-oxo-piperazin-1-yl)-ethyl]-amide] | 70.1
26 | COCCn1c(Nc2nc3ccc(Cl)cc3s2)nc2cc(C(=O)NCCN3CCNC(=O)C3)ccc21 [Example 332, 2-(6-Chloro-benzothiazol-2-ylamino)-1-(2-methoxy-ethyl)-1H-benzoimidazole-5-carboxylic acid [2-(3-oxo-piperazin-1-yl)-ethyl]-amide] | 55.9
27 | Cn1c(Nc2nc3ccc(OC(F)(F)F)cc3s2)nc2cc(C(=O)NCCN3CCCCC3)ccc21 [Example 333, 1-Methyl-2-(6-trifluoromethoxy-benzothiazol-2-ylamino)-1H-benzoimidazole-5-carboxylic acid (2-piperidin-1-yl-ethyl)-amide] | 14.5
28 | Cn1c(Nc2nc3ccc(Cl)cc3s2)nc2cc(C(=O)NCCN3CCC(F)(F)CC3)ccc21 [Example 335, 2-(6-Chloro-benzothiazol-2-ylamino)-1-methyl-1H-benzoimidazole-5-carboxylic acid [2-(4,4-difluoro-piperidin-1-yl)-ethyl]-amide] | 18.9
29 | Cn1c(Nc2nc3ccc(Cl)cc3s2)nc2cc(C(=O)NCCN3CCCC(F)(F)C3)ccc21 [Example 336, 2-(6-Chloro-benzothiazol-2-ylamino)-1-methyl-1H-benzoimidazole-5-carboxylic acid [2-(3,3-difluoro-piperidin-1-yl)-ethyl]-amide] | 16.1
30 | Cn1c(Nc2nc3ccc(Cl)cc3s2)nc2cc(C(=O)NCCN)ccc21 [Example 343, 2-(6-Chloro-benzothiazol-2-ylamino)-1-methyl-1H-benzoimidazole-5-carboxylic acid (2-amino-ethyl)-amide hydrochloride] | 21.1

From patent US8759535B2, “Substituted fused imidazole derivatives, pharmaceutical compositions, and methods of use thereof” (High Point Pharmaceuticals, LLC, priority 2010, dated 2014)
